Experimental data reported in ChEMBL document CHEMBL1151193, “Ancistrotanzanine C and related 5,1'- and 7,3'-coupled naphthylisoquinoline alkaloids from Ancistrocladus tanzaniensis” (J Nat Prod, 2004).
Values after ≈ are worked out from the molar mass of the structure shown.

How the values were obtained:
Plasmodium falciparum [1] = assay: Antiplasmodial activity against chloroquine-resistant Plasmodium falciparum K1; format: functional, organism-based
Plasmodium falciparum [2] = assay: Antiplasmodial activity against chloroquine-sensitive Plasmodium falciparum 3D7; format: functional, organism-based
Trypanosoma cruzi = assay: Antitrypanosomal activity against Trypanosoma cruzi; format: functional, organism-based
[3] = test system: Trypanosoma brucei rhodesiense; assay: Antitrypanosomal activity against Trypanosoma brucei rhodesiense; format: functional, organism-based
Leishmania donovani = assay: Antileishmanial activity against Leishmania donovani; format: functional, organism-based
[4] = Cytotoxicity against rat L6 cells; format: cell-based; settings: read-out: MIC
L6 = assay: Cytotoxicity against Leishmania donovani infected rat L6 cells; format: cell-based

Row | SMILES | IC50 (Plasmodium falciparum [1]) [µg/mL] | IC50 (Plasmodium falciparum [2]) [µg/mL] | IC50 (Trypanosoma cruzi) [µg/mL] | IC50 [3] [µg/mL] | IC50 (Leishmania donovani) [µg/mL] | MCC [4] [µg/mL] | Activity (L6)
1 | COc1cc(OC)c(-c2c(C)cc(OC)c3c(OC)cccc23)c2c1C(C)=N[C@@H](C)C2 | 2.2 (≈ 5.24 µM) | 5.4 (≈ 12.9 µM) | 60.5 (≈ 144 µM) | 5.2 (≈ 12.4 µM) | 30 (≈ 71.5 µM) | > 90 | –
2 | COc1cc2c(c(OC)c1-c1c(C)cc3cccc(OC)c3c1O)[C@@H](C)N(C)[C@@H](C)C2 [ANCISTROTECTORINE] | 0.7 (≈ 1.66 µM) | 9.1 (≈ 21.6 µM) | 4.3 (≈ 10.2 µM) | 4.3 (≈ 10.2 µM) | – | 19.9 | Toxic
3 | COc1c(-c2c(C)cc3cccc(OC)c3c2O)c(O)cc2c1[C@@H](C)N(C)[C@@H](C)C2 [ANCISTROTANZANINE C] | 0.1 (≈ 0.245 µM) | 4.2 (≈ 10.3 µM) | 14 (≈ 34.4 µM) | 1.3 (≈ 3.19 µM) | – | 40.7 | Toxic
4 | O=C(Cn1ccnc1[N+](=O)[O-])NCc1ccccc1 [BENZNIDAZOLE] | – | – | 0.29 (≈ 1.11 µM) | – | – | – | –
5 | COc1cc(OC)c2c(c1-c1c(C)cc(OC)c3c(OC)cccc13)C[C@H](C)N(C)[C@H]2C [O,N-Dimethylancistrocladine] | 3.6 (≈ 8.27 µM) | 34.1 (≈ 78.3 µM) | 65.3 (≈ 150 µM) | 5.4 (≈ 12.4 µM) | – | 42.9 | Toxic
6 | COc1cc2c(c(OC)c1-c1c(C)cc3cccc(OC)c3c1O)C(C)=N[C@@H](C)C2 [ANCISTROCLADIDINE] | 0.3 (≈ 0.74 µM) | 1.9 (≈ 4.69 µM) | 23.4 (≈ 57.7 µM) | 2 (≈ 4.93 µM) | 2.9 (≈ 7.15 µM) | 28.3 | –
7 | Nc1nc(N)nc(Nc2ccc([As]3SCC(CO)S3)cc2)n1 (configuration not stated) [MELARSOPROL] | – | – | – | 0.0031 | – | – | –
